Assay results from patent publication US20030040485A1, “alpha/beta-adrenoceptors blockers and angiotensin converting enzyme inhibitors derived from hydroxyphenyl carboxylic acid and alcohol” (priority 2001, published 2003).

Tests used:
[1] = tested on: β2-adrenoceptor (trachea); experiment: β2-adrenoceptor antagonism, trachea, pA2; set-up: species or system rat; conditions: Schild plot, mean ± SEM of six to eight experiments
Experimental: (§1) When the spontaneously beating rate of right atria reached a certain stability, cumulative administration of L-isoproterenol from 1×10^−10˜3×10^−10 M caused the heart rate to increase continuously, and a cumulative dose-response curve was obtained. Then the L-isoproterenol was thoroughly washed off with Kreb's solution to recover the right atria's heart rate stability. After the equilibrum was reached again for at least 60 minutes, different concentrations (10^−7, 10^−6, 10^−5 M) of compounds were added. 30 minutes later, cumulative administration of L-isoproterenol from 1×10^−10˜3×10^−10 M were carried out again, and another new cumulative dose-response curve was obtained. Administration of L-isoproterenol started from concentration 1×10^−10 M, and the concentration was raised 0.5 log each time for a total of six times. Cumulative administration interval was when the previous concentration reached its greatest effect, the next concentration would be immediately given. […] In other groups of rats, after separate administration of test compounds, their pA2 values were obtained.
pA2=−Log KB Log(DRADJ−1)=n log[B]−LogKB

α1-adrenoceptor (aorta) = experiment: α-adrenoceptor antagonism, isolated rat aorta, pA2 vs norepinephrine; set-up: species or system Wistar rat; conditions: Schild plot, mean ± SEM of six to eight experiments
Experimental: Vascular α-adrenoceptor blocking activity was evaluated in the Wistar rat aorta preparation. Isolated rat aorta preparations were mounted in organ bath and suspended in Krebs solution at 37° C. […] or 75 mM KCl was added to the bath medium after a control concentration-response curve to norepinephrine had been obtained. The tissue was exposed to test compounds for 30 min before rechallenging with norepinephrine. Inhibitions were expressed as percentages of the maximum contraction obtained by the challenge of the tissues with norepinephrine. The 70 mM NaCl on 75 mM KCl solution may to replace with equimolar KCl, if necessary.
The methods published by Huang Y C. et. al. in J Cardiovasc Pharmacol.34, pp.10-20 (1999) and Drug Devel Res. 47, 77-89 (1999). Through referenced and modified method to evaluate, test compounds whether have α1-adrenergic and sertoninergic effect.
Isolated Wistar rat aorta preparations were mounted in organ bath and suspended in Krebs solution (NaCl, 118 mM, KCl, 4.8 mM; CaCl,2.5 mM; MgSO4,1.2 mM; K2PO4,1.2 Mm; […] Mm; glucose, 11 mM) at 37° C. under 1 g resting tension.
Upon balancing for 60 minutes, 10^−10-10^−4 M norepinephrine is administered directly from low concentration to high using 0.5 log unit to gradually increase until the maximum reaction is reached, and this act as the control unit. Then different concentrations of the synthetic testing compounds, 10^−7 M, 10^−6 M, or 10^−5M, are used, and upon 30 minutes of reaction, norepinephrine is used again to complete the cumulative dose. The EC50 value of blocking […] may be obtained from observation of the suppressing effects caused by different concentrations of the synthetic testing compound.
The equation is as follows: […]

[2] = tested on: β1-adrenoceptor (right atrium); experiment: β1-adrenoceptor antagonism, spontaneously beating right atrium, pA2 vs L-isoproterenol; conditions: for β1 pA2 value, Right atrium: Schild plot, mean ± SEM of six to eight experiments; for β1/β2 Ratio: antilogarithm of difference between mean pA2 of right atrium and trachea
Experimental: The spontaneously-beating right atria was clipped on both end by heart shaped clips, where one end was fixed at the bottom of 10 ml of tissue bath made of physiological saline solution, and temperature maintained at 37° C. The other end of the atria was connected to a force transducer, and isometric contractions and beating rate of the right atria were recorded by COULBOURN AT-High-Speed VideoFigure. After the samples were given 250 mg of contractions and reach equilibrium the following experiments were carried out:
as §1
pA2=−Log KB Log(DRADJ−1)=n log[B]−LogKB

[3] = target: β1-adrenoceptor (left atrium) (Rattus norvegicus, UniProt P18090); experiment: β1-adrenoceptor antagonism, left atrium, pA2; conditions: Schild plot, mean ± SEM of six to eight experiments
β1-adrenoceptor (left atrium), sequence (P18090 whole entry): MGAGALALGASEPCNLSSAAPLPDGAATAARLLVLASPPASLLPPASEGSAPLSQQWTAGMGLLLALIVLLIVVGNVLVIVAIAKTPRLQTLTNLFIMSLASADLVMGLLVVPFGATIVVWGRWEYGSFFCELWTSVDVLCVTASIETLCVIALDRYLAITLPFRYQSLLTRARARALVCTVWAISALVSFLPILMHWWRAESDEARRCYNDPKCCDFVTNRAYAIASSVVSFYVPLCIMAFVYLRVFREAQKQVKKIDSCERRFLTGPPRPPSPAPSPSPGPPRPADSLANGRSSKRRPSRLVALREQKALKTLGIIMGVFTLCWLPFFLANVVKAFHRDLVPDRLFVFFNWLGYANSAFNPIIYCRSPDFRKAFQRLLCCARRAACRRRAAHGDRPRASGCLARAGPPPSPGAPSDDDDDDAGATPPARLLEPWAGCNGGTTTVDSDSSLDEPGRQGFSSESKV

[4] = tested on: blood pressure of normotensive male Wistar rats; experiment: Heart rate and blood pressure in living rat (i.v., anaesthetized); format: in vivo; conditions: maximal decrease, 2 mg/kg i.v.
Description: Normotensive Male Wistar rats (NTRs), weighing 200˜300 g were abdominal anaesthetized with pentobarbital sodium. Tracheal was cannulated to maintain normal respiration. Polyethylene tube was inserted into the left femoral vein to facilitate drug administration. A 3-way stopcock was used, with one end comnected to a syringe for drug injection, while the other end was connected to the syringe filled with physiological saline. The latter was used to prevent residual drugs in the polyethylene tube after injection, which would affect experimental accuracy.
The right femoral artery was also inserted with polyethylene, and a 3-way stopcock was used tool, where one end was connected to heparin solution to prevent embolism. The other end was comnected to a Disposable Diaphragm Dome, TA1019, and linked to a pressure transducer (Model P10EZ; Spectramed, Oxnard, Calif., USA). Through an amplifier, a recorder recorded the overall and average arterial pressure; heart rate to evaluate the effect of drug on blood pressure and heart rate. Different concentrations 0.1, 1.0, 2.0, 3.0 mg/kg of test compounds were given to the rats via femoral vein and the differences in the heart rate and blood pressure were compared. Table 2 shown maximal decrease of blood pressure affect of compounds after given 2.0 mg/kg test compounds to the rats.

[5] = target: T1, angiotensin converting enzyme (ACE) (Rattus norvegicus, UniProt P47820); experiment: ACE activity value on tissue (rat lung membrane, Hip-His-Leu, fluorometric); format: biochemical; conditions: mean of three samples
T1 construct: Centrifuged 250-300 mg lung tissue; from tissue; host or cells: rat lung membrane fraction
T1 sequence (P47820 36-1313): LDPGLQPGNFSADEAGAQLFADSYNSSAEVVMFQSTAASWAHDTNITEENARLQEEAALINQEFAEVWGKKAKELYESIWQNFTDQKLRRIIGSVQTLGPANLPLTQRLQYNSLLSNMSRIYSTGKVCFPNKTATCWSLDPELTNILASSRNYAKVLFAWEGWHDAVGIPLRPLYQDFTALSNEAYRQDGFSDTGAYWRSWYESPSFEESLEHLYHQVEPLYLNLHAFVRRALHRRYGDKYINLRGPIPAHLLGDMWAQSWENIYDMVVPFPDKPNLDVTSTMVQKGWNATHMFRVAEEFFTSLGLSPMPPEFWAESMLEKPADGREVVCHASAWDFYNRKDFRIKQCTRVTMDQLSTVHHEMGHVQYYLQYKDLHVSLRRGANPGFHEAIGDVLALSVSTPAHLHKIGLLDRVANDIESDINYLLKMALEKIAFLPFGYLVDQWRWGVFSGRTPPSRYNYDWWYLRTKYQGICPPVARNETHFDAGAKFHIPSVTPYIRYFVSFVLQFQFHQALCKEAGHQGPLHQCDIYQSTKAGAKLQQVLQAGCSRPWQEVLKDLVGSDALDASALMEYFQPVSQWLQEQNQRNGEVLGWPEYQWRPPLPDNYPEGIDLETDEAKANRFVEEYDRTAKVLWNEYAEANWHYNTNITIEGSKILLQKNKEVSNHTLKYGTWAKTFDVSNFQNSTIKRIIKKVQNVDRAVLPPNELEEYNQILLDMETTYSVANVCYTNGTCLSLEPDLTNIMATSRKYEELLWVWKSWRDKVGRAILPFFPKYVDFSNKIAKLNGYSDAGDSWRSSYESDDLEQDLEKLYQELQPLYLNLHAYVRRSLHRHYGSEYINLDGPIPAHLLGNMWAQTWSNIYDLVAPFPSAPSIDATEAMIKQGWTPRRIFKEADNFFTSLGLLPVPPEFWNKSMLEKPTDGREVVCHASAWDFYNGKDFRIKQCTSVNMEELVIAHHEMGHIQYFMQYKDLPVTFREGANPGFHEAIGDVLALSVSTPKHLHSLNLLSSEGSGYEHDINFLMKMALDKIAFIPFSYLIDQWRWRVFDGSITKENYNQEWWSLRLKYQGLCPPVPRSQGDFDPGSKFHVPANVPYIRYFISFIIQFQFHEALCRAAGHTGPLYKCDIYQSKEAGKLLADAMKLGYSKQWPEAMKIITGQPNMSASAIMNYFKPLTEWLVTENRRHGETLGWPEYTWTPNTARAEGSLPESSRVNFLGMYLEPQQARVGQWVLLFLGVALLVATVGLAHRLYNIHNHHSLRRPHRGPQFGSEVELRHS
Experimental: Centrifuged 250-300 mg lung tissue, 3 ml extracted liquid (10 mmol/L HEPES, 125 mmol/L NaCl, pH7.4) under 12000 g for 20 minutes at 4° C. by Teflon-glass homogenizer, the cell membrane was obtained. The 3 ml homogenized liquid was added into twice, before and after centrifuged. Then the Lowry's method was adopted to determine the protein content in the membrane. Mixing 15 minute of liquid and 30 mmol/L Hip-His-Leu solution at 37° C. Fluorometric was used to determine the Hippurate content. test compounds (10^−8M, 10^−7M, 10^−6M) dissolved in PBS normal saline and used as control group. Then ACE activity inhibition rate was determined.

[6] = target: T2, angiotensin converting enzyme (ACE) (Rattus norvegicus, UniProt P47820); experiment: ACE inhibitory activity in rat serum (Hycor kit, [3H]-hippuryl-glycyl-glycine); format: biochemical; conditions: mean of three samples
T2 construct: from tissue; host or cells: rat serum
T2 sequence (P47820 36-1238 limits assumed): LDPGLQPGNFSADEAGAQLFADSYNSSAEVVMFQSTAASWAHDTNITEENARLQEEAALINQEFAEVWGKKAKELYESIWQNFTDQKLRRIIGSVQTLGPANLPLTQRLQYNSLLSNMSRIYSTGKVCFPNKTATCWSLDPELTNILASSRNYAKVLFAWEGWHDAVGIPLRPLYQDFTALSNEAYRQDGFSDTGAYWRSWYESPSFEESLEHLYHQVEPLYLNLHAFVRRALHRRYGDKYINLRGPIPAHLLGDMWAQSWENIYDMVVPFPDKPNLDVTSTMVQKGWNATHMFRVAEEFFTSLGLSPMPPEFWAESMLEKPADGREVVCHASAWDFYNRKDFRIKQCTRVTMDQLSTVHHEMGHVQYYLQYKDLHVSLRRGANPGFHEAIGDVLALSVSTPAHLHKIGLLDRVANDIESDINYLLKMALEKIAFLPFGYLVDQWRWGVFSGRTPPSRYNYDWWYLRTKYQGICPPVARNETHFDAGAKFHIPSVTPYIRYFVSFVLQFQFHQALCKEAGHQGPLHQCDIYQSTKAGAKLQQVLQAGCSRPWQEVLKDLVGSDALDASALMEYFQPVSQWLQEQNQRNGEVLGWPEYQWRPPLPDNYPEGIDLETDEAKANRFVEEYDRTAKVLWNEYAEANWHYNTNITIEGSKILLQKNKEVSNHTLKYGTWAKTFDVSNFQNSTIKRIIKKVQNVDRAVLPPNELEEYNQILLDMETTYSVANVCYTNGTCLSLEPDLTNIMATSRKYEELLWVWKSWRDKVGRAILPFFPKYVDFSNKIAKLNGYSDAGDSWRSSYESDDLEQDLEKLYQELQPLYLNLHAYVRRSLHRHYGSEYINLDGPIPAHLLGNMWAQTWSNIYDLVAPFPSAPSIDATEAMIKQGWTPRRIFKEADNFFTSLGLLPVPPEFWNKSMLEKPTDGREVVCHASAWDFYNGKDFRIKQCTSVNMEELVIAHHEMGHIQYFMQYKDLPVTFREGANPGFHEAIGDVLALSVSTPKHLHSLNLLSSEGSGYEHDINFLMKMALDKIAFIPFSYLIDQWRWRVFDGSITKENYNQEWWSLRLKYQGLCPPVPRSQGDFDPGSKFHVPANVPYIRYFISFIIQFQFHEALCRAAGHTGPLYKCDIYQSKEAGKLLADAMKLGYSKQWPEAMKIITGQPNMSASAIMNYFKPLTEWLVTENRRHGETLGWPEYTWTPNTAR
Experimental: ACE value in serum was determined by Hycor kit, rat serum were cultured in 37° C. of [^3H]-hippuryl-glycyl-glycine for 60 minutes. While [^3H]-hippuryl-glycyl-glycine contains three peptide. [^3H] hippuric acid was obtained when extracted of culture solution with ethyl acetate, the content be determined by spectrophotometer. The content in serum sample was as the control group after it was added with 10^−8M, 10^−7M, 10^−6M compounds, then dissolved in PBS.

| Compound | β2 pA2 value, Trachea [1] | α1 pA2 value, Aorta (α1-adrenoceptor (aorta)) | β1 pA2 value, Right atrium [2] | β1 pA2 value, Left atrium [3] | Decrease of blood pressure [4] [mmHg] | β1/β2 Ratio [2] | Kb [3] [nM] | inhibition at 1 µM ([5]; 10^−6M, read-out: Inhibitory activity of ACE, In Rat lung) [%] | inhibition at 0.1 µM ([5]; 10^−7M, read-out: Inhibitory activity of ACE, In Rat lung) [%] | Inhibitory activity of ACE, In Rat lung ([5]; 10^−8M) [%] | inhibition at 1 µM ([6]; 10^−6M) [%] | inhibition at 0.1 µM ([6]; 10^−7M) [%] | inhibition at 0.01 µM ([6]; 10^−8M) [%] |
| --- | --- | --- | --- | --- | --- | --- | --- | --- | --- | --- | --- | --- | --- |
| CC(C)NCC(O)COc1ccc(CC(N)=O)cc1 (centres unmarked) [atenolol, reference compound] | 5.81 | <5.00 | 7.34 | – | – | – | – | – | – | – | – | – | – |
| 1-[(4 -Propenoic acid ethyl ester)phenoxy-3-amino]-propanol [compound 1] | 6.43 | – | 6.83 | 6.92 | 60 ± 4.7 | 2.1 | – | – | – | – | – | – | – |
| CC(CCc1ccccc1)NCC(O)c1ccc(O)c(C(N)=O)c1 (centres unmarked) [labetalol, reference compound] | 7.54 | 6.87 | 7.91 | – | – | 2.3 | 28.8 | – | – | – | – | – | – |
| CC(C)NCC(O)COc1cccc2ccccc12 (centres unmarked) [propranolol, reference compound] | 8.07 | <5.00 | – | – | – | – | – | – | – | – | – | – | – |
| COc1ccccc1OCCNCC(O)COc1ccc(CO)cc1OC (centres unmarked) [compound 4, Vanydilol] | 6.69 | 7.89 | 6.72 | 6.76 | 83 ± 9.1 | 1.6 | – | – | – | – | – | – | – |
| CCOC(=O)[C@H](CCc1ccccc1)N[C@@H](C)C(=O)N1CCC[C@H]1C(=O)O [Enalapril, reference compound] | – | – | – | – | – | – | – | 98 | 93 | 51 | 99 | 94 | 54 |
| CCOC(=O)CCc1ccc(OCC(O)CNCCOc2ccccc2OC)cc1 (centres unmarked) [compound 3, Propiodilol] | 6.71 | – | 6.74 | 6.78 | 56 ± 3.8 | 1.9 | – | – | – | – | – | – | – |
| COc1cc(CO)ccc1OCC(O)CNC(C)(C)C (centres unmarked) [compound 2, Vanynolol] | 6.61 | 7.23 | 6.67 | 6.84 | 72 ± 2.5 | 2.3 | – | – | – | – | – | – | – |
